Measurements from patent US20080181957A1, “INCREASED AMORPHOUS STABILITY OF POORLY WATER SOLUBLE DRUGS BY NANOSIZING” (priority 2006, published 2008).

Key:
Assay type in all cases: physicochemical
[1] = Water solubility; conditions: 25 °C
Method: “Water solubility” means a measure of the maximum possible concentration of a drug dissolved in water. The water temperature may be specified; in an embodiment water solubility is determined at 25 Deg. C. Units of measurement of water solubility are typically mass/volume, such as mg/ml. […] C.; preferably less than or equal to about 0.1 mg/ml at 25 Deg. […] C.

[2] = DSC amorphous stability (recrystallization) on storage at 25 Deg C; conditions: FIG. 3; for crystallinity: DSC
Method: The amorphous state of the amorphous drug core is determined by subjecting a population of nanoparticles that comprise one or more nanoparticles that comprise the recited amorphous drug core to differential scanning calorimetry (DSC). In an embodiment, a DSC method according to the invention used a Perkin-Elmer DSC-7 or a Diamond DSC calorimeter applied for the measurement of specific transition temperatures of tested samples. Thus, the glass transition (Tg), melting (Tm) and crystallization (Tc) temperatures were measured for each sample, according to the PN-EN ISO 11357-1:2002 (ISO 11357-1:1997), ISO 11357-2:1999 and ISO 11357-3:1999 standards, at the rate of temperature change of 10 Deg C./min. The instrument was calibrated using indium, tin and zinc certified reference materials (CRMs)
The amorphous state of the amorphous drug core, as measured by DSC is expressed as a weight fraction of the weight of amorphous material in the amorphous drug core to the total weight of the amorphous drug core, expressed as an average value across the population of nanoparticles being measured. For instance, if a population of nanoparticles was measured using DSC, and the amorphous state was determined to be a particular value for the population, that value would be considered the average amorphous state for each nanoparticle within the population. An inventive amorphous drug core may contain a small amount of crystalline drug.
“Amorphous stability” means a measure of how much a material changes in its structure from being amorphous to being crystalline under defined conditions and a set timeframe. […] For instance, an amorphous material that is initially 98% w/w amorphous is considered amorphously stable according to the invention if, at the end of 6 months testing at 25 degree C., the material is at least 88% w/w amorphous. The amorphous state of a material according to the invention is determined using a DSC method as detailed above and elsewhere herein.

[3] = XRD amorphous stability of dried samples on storage; conditions: storage 3 month and 1 year, nanosized sample dried by lyophilization, FIGS. 1 and 2

SMILES | solubility [1] | crystallinity ([2]; 4 month time point) | crystallinity ([2]; 5 month time point) | crystallinity ([2]; 6 month time point) | storage time after which recrystallization was detectable by DSC ([2]; storage at 25 Deg C) | XRD amorphous stability [3]
O=C(NN1CCCCC1)c1nn(-c2ccc(Cl)cc2Cl)c2c1CCC/C2=C\c1ccc(F)cc1 [COMPOUND 1] | ≤ 0.2 ng/mL |  |  |  |  | 
O=C(NN1CCCCC1)c1nn(-c2ccc(Cl)cc2Cl)c2c1CCC/C2=C\c1ccc(F)cc1 [bulk amorphous COMPOUND 1] |  | 0.44% | 1.39% | 10.54% | 4 month | XRD amorphous stability can be achieved up to 1 year
